Assay results: PubChem BioAssay (NCI)
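Test compounds were applied to cells in 96-well plates for 48 hours at 5 doses. TGI marks complete inhibition of growth.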

Legend:
Assay in all cases: growth of human tumour cells (NCI), 48 h
[1] = test system: A498 renal
[2] = test system: CAKI-1 renal
[3] = test system: EKVX NSCLC
[4] = test system: HCC-2998 colon
[5] = test system: K-562 leukemia
[6] = test system: MCF7 breast
[7] = test system: SF-268 CNS
[8] = test system: SNB-19 CNS
[9] = test system: TK-10 renal
[10] = test system: OVCAR-4 ovarian
[11] = test system: SK-OV-3 ovarian

| SMILES | TGI [1] | TGI [2] | TGI [3] | TGI [4] | TGI [5] | TGI [6] | TGI [7] | TGI [8] | TGI [9] | TGI [10] | TGI [11] |
| --- | --- | --- | --- | --- | --- | --- | --- | --- | --- | --- | --- |
| C=C(c1ccccc1)c1ccccc1-c1cc(-c2ccccc2)cc(-c2ccccc2)n1 | > 100 µM | > 100 µM | > 100 µM | > 100 µM | > 100 µM | > 100 µM | > 100 µM | > 100 µM | > 100 µM | – | – |
| O=C(O)CCC(NC(=O)c1ccc(Nc2nc3cc(C(F)(F)F)ccc3nc2C(=O)O)cc1)C(=O)O (stereo not given) | > 100 µM | – | > 100 µM | > 100 µM | > 100 µM | > 100 µM | > 100 µM | > 100 µM | > 100 µM | – | – |
| CN(C)CCCNCc1cccc2ccccc12 | > 100 µM | – | > 100 µM | – | > 100 µM | > 100 µM | > 100 µM | > 100 µM | > 100 µM | > 100 µM | > 100 µM |
| C/C=N\N1C(=O)c2ccccc2C1=O | > 100 µM | > 100 µM | > 100 µM | > 100 µM | > 100 µM | – | > 100 µM | > 100 µM | > 100 µM | > 100 µM | – |
| COC(=O)C1=C(C(=O)OC)SC2(S1)C(C(=O)OC)=C(C(=O)OC)Sc1c2ssc1=NC(C)(C)C | 3.48 µM | 4.01 µM | 3.36 µM | – | 9.66 µM | 3.22 µM | 4.72 µM | 9.77 µM | 3.27 µM | 3.32 µM | 18.1 µM |
| [N-]=[N+]=C(C(=O)N1CCCC1=O)S(=O)(=O)c1ccccc1 | – | – | > 100 µM | > 100 µM | > 100 µM | > 100 µM | > 100 µM | > 100 µM | > 100 µM | – | – |
| Cc1cc(S(=O)(=O)/N=C(/NN)NNc2cccc(C(F)(F)F)n2)c(S)cc1Cl | 50.1 µM | 57.1 µM | 63.8 µM | 31.2 µM | 82.6 µM | – | 57.4 µM | 68.8 µM | 51.8 µM | 36 µM | 53 µM |
| N#CCC(=O)N1CCCCCCC1 | > 100 µM | > 100 µM | > 100 µM | > 100 µM | > 100 µM | – | > 100 µM | > 100 µM | > 100 µM | > 100 µM | > 100 µM |
| CCN1CCC(O)(/C=C/c2ccc(OC)cc2)C(C(=O)/C=C/c2ccc(OC)cc2)C1 (stereo not given) | 27.2 µM | – | 26.4 µM | 29 µM | 12.2 µM | 10.7 µM | 28.8 µM | 29.9 µM | 26.7 µM | 26.7 µM | 22.5 µM |
| COc1cc(Br)c(CC2C3=C(CCN2C(=O)C2CCC2)CC(=O)CC3)cc1O (stereo not given) | – | – | > 100 µM | 92.9 µM | 81.3 µM | – | > 100 µM | > 100 µM | > 100 µM | – | > 100 µM |
| O=c1c2ccccc2nc(N/N=C/c2ccccc2O)n1-c1ccccc1 | > 100 µM | > 100 µM | – | > 100 µM | > 100 µM | > 100 µM | > 100 µM | > 100 µM | > 100 µM | 43.2 µM | > 100 µM |
| O=c1oc2ccccc2c(O)c1C(C/C(CCN1CCCC1)=N\Nc1ccccc1)c1ccccc1 (stereo not given) | > 100 µM | > 100 µM | > 100 µM | > 100 µM | > 100 µM | – | > 100 µM | > 100 µM | > 100 µM | > 100 µM | > 100 µM |
| CCc1cccc(C)c1NC(=O)CC1C(=O)Nc2ccccc2S1(=O)=O (stereo not given) | 58.3 µM | 31.2 µM | 41.9 µM | 30.4 µM | 14.7 µM | – | 39.4 µM | 75.5 µM | 59.4 µM | 29.6 µM | – |
| O=C(CSc1nc2ccccc2c(=O)n1-c1ccccc1)N=Nc1c(O)[nH]c2ccc(F)cc12 | – | 3.46 µM | 5.57 µM | 4.75 µM | 3.35 µM | 4.3 µM | 4.93 µM | 67.5 µM | – | 4.34 µM | 3.75 µM |
| NC(CSSCC(N)Cc1ccccc1)Cc1ccccc1 (stereo not given) | > 100 µM | – | > 100 µM | > 100 µM | > 100 µM | – | > 100 µM | > 100 µM | > 100 µM | > 100 µM | > 100 µM |
| C=CCC(C(=O)Nc1cccc2[nH]cnc12)C(=O)OCC (stereo not given) | > 100 µM | – | > 100 µM | > 100 µM | > 100 µM | > 100 µM | > 100 µM | > 100 µM | > 100 µM | > 100 µM | > 100 µM |
| COc1ccc2c(c1)OC[C@@H]1c3cc(O)c(OCc4ccccc4)cc3O[C@H]21 | > 100 µM | 84.8 µM | 60.1 µM | > 100 µM | > 100 µM | – | > 100 µM | > 100 µM | 96.4 µM | 60.3 µM | > 100 µM |
| COC(=O)c1c(O)ccc2c1c1c(n2Cc2ccccc2)C(=O)c2ccccc2C1 | > 100 µM | 87.2 µM | – | – | 46 µM | > 100 µM | > 100 µM | > 100 µM | > 100 µM | 70.4 µM | > 100 µM |
| O=C1/C(=C/c2ccc(Br)cc2)CCC/C1=C\c1ccc(Br)cc1 | 16.1 µM | > 100 µM | 62.5 µM | 6.48 µM | 21.2 µM | – | > 100 µM | 46 µM | 83.1 µM | 36.2 µM | > 100 µM |
| C[N+](C)(CCNC(=O)c1cccc2cc3ccccc3nc12)Cc1ccc([N+](=O)[O-])s1 | > 25 µM | > 25 µM | > 25 µM | – | > 25 µM | > 25 µM | > 25 µM | – | > 25 µM | – | > 25 µM |
| O=C1NCCS(=O)(=O)N2CCC[C@@H]12 | > 100 µM | > 100 µM | > 100 µM | > 100 µM | > 100 µM | – | > 100 µM | > 100 µM | > 100 µM | > 100 µM | > 100 µM |
| CCOC(=O)c1c(-c2cccc3ccccc23)c(C#N)c(=S)n(C2OC(COC(C)=O)C(OC(C)=O)C(OC(C)=O)C2OC(C)=O)c1C (stereo not given) | > 100 µM | – | – | > 100 µM | > 100 µM | > 100 µM | > 100 µM | > 100 µM | > 100 µM | > 100 µM | > 100 µM |
| CC1(C)N=C(c2ccccn2)C(c2ccccn2)=NC1(C)C | > 100 µM | > 100 µM | > 100 µM | > 100 µM | > 100 µM | – | > 100 µM | > 100 µM | – | > 100 µM | – |
